# Where two headings read alike, the source gives them in different places.
# Experiments:
# MiaPaCa-2 = test: MTT assay, MiaPaCa-2
# Description: Cells were treated with QN523 for 1, 4, 8, 24, 48, 72 h and left in culture in fresh media. MTT assay was performed 72 h after initiation of treatment. Data points represent Mean±SD from three independent experiments.
# (§1) Experiments conducted during the course of developing embodiments for the present invention involved performance of a phenotypic screen of a library of 20,000 small-molecules representing five million compounds. […] Subsequently, a lead optimization campaign was performed to synthesize a series of close analogs. Initially, the 50 analogs were tested in three pancreatic cancer cell lines using MTT assay (Table 1).
# (§2) For in vitro studies, compounds were dissolved in DMSO at 10 mM as stock solutions and stored at −20° C. For in vivo studies, QN523 was dissolved in a vehicle containing 5% DMSO, 35% propylene glycol and 60% saline, and administered at 100 uL through intraperitoneal injections.
# Panc-1 = test: MTT assay, Panc-1; type: cell-based; details: Homo sapiens
# Description: as §1, §2
# Ovcar 8 = test: MTT assay, Ovcar 8; type: cell-based; details: Homo sapiens
# Description: (§3) In order to understand its potential selectivity for different types of cancer and choose the best model for further characterization, QN523 was tested in a panel of 12 cancer cell lines with various genetic and pathological backgrounds (Table 2). […] Because of remarkable potency of QN-523 in pancreatic cancer in-depth preclinical studies in this disease model were performed.
# [1] = system: panel of 12 cancer cell lines; test: MTT assay, panel of 12 cancer cell lines; type: cell-based; details: range over the panel; read-out: IC50 values across all 12 cell lines
# Description: as §3
# MiaPaCa-2 cells [2] = test: Bru-seq analysis of RNA synthesis in MiaPaCa-2; type: cell-based; details: 1 μM
# Description: In order to understand the mechanism of action for QN523 in pancreatic cancer, Bru-seq was performed to evaluate global changes in gene synthesis after QN523 treatment. […] During this time, the cells begin initiating cascade of pharmacological events unique to these compounds. However, cell death pathways will be initiated at later time points well beyond 24 hrs. Therefore, the Bru-seq experiments were performed after 24 hrs drug (1 μM) exposure. Using RPKM>0.5, gene size >300 bp as the cut off values to eliminate background noises, there were totally 8521 expressed genes in the QN523 and DMSO control samples out of around 22,000 genes in the reference genome.
# Bru-seq data from QN523 treatment (1 uM, 24 h) and vehicle controls in MiaPaCa-2 was processed by filtering for genes with RPKM>0.5, gene size >300 bp. Expressed genes were then preranked according to fold change comparing to control and subjected to analysis.
# MiaPaCa-2 cells [3] = test: Ingenuity Pathway Analysis (IPA) of Bru-seq gene lists; details: 1 μM, 24 h
# Text: Top 20 canonical pathways regulated by QN523. Histogram represents percentage of genes regulated in the pathway; numbers on the histogram are total numbers of genes in the specific pathway. […] Orange line represents statistical significance in regulation of the indicated pathway.
structure (smiles),measurement,setting,value
"O=C(Nc1cccc2cccnc12)c1cnccn1 [QN523, Pyrazine-2-carboxylic acid quinolin-8-ylamide]",IC50,"MiaPaCa-2; Homo sapiens, MIA PaCa-2, read-out: IC50 Mia PaCa-2, MTT assay, PDAC cell line",110 nM
same,IC50,"MiaPaCa-2; Homo sapiens, MIA PaCa-2, read-out: IC50 Values MiaPaCa-2, MTT assay, Mean ± SD, three independent experiments",110 ± 30 nM
same,IC50,"MiaPaCa-2; read-out: IC50 Mia PaCa-2, MTT assay, PDAC cell line",~100 nM
same,cytotoxicity versus treatment time,"MiaPaCa-2; treated 1, 4, 8, 24, 48, 72 h, washed, MTT at 72 h",time dependent cytotoxicity effect
same,IC50,"Panc-1; PANC-1, read-out: IC50 Panc-1",500 nM
same,IC50,"Panc-1; PANC-1, read-out: IC50 Values Panc-1",500 ± 70 nM
same,IC50,Ovcar 8,300 nM
same,IC50,[1],100 to 5700 nM
same,number of genes downregulated,"MiaPaCa-2 cells [2]; 24 h, of 8521 expressed genes",123 genes
same,number of genes upregulated more than two fold,"MiaPaCa-2 cells [2]; 24 h, of 8521 expressed genes",275 genes
same,Fold Change ATF3,"MiaPaCa-2 cells [2]; RNA synthesis, 24 h vs control",22.1 fold
same,Fold Change AURKAIP1,"MiaPaCa-2 cells [2]; RNA synthesis, 24 h vs control",−2.3 fold
same,Fold Change C9orf140,"MiaPaCa-2 cells [2]; RNA synthesis, 24 h vs control",−2.5 fold
same,Fold Change C17orf62,"MiaPaCa-2 cells [2]; RNA synthesis, 24 h vs control",−2.5 fold
same,Fold Change C19orf60,"MiaPaCa-2 cells [2]; RNA synthesis, 24 h vs control",−2.3 fold
same,Fold Change C19orf76,"MiaPaCa-2 cells [2]; RNA synthesis, 24 h vs control",−2.3 fold
same,Fold Change CCDC85C,"MiaPaCa-2 cells [2]; RNA synthesis, 24 h vs control",−2.4 fold
same,Fold Change CCNG2,"MiaPaCa-2 cells [2]; RNA synthesis, 24 h vs control",6.6 fold
same,Fold Change CD55,"MiaPaCa-2 cells [2]; RNA synthesis, 24 h vs control",6.3 fold
same,Fold Change CXCL3,"MiaPaCa-2 cells [2]; RNA synthesis, 24 h vs control",11.1 fold
same,Fold Change DDIT3,"MiaPaCa-2 cells [2]; RNA synthesis, 24 h vs control",10.7 fold
same,Fold Change DNAJB9,"MiaPaCa-2 cells [2]; RNA synthesis, 24 h vs control",7.8 fold
same,Fold Change FAM129A,"MiaPaCa-2 cells [2]; RNA synthesis, 24 h vs control",16.0 fold
same,Fold Change FASN,"MiaPaCa-2 cells [2]; RNA synthesis, 24 h vs control",−2.4 fold
same,Fold Change GABARAPL1,"MiaPaCa-2 cells [2]; RNA synthesis, 24 h vs control",8.2 fold
same,Fold Change HERPUD1,"MiaPaCa-2 cells [2]; RNA synthesis, 24 h vs control",10.0 fold
same,Fold Change HMOX1,"MiaPaCa-2 cells [2]; RNA synthesis, 24 h vs control",13.6 fold
same,Fold Change HPDL,"MiaPaCa-2 cells [2]; RNA synthesis, 24 h vs control",−2.4 fold
same,Fold Change HSPA5,"MiaPaCa-2 cells [2]; RNA synthesis, 24 h vs control",7.9 fold
same,Fold Change LOC344887,"MiaPaCa-2 cells [2]; RNA synthesis, 24 h vs control",16.7 fold
same,Fold Change MAP1LC3B,"MiaPaCa-2 cells [2]; RNA synthesis, 24 h vs control",6.9 fold
same,Fold Change MXD3,"MiaPaCa-2 cells [2]; RNA synthesis, 24 h vs control",−2.3 fold
same,Fold Change NAT14,"MiaPaCa-2 cells [2]; RNA synthesis, 24 h vs control",−2.4 fold
same,Fold Change OSGIN1,"MiaPaCa-2 cells [2]; RNA synthesis, 24 h vs control",8.0 fold
same,Fold Change PRKCDBP,"MiaPaCa-2 cells [2]; RNA synthesis, 24 h vs control",−2.3 fold
same,Fold Change RANGRF,"MiaPaCa-2 cells [2]; RNA synthesis, 24 h vs control",−2.3 fold
same,Fold Change RNASEH2C,"MiaPaCa-2 cells [2]; RNA synthesis, 24 h vs control",−2.3 fold
same,Fold Change RPL23AP32,"MiaPaCa-2 cells [2]; RNA synthesis, 24 h vs control",−2.3 fold
same,Fold Change SAT1,"MiaPaCa-2 cells [2]; RNA synthesis, 24 h vs control",7.2 fold
same,Fold Change SCARNA10,"MiaPaCa-2 cells [2]; RNA synthesis, 24 h vs control",−2.4 fold
same,Fold Change SEMA6B,"MiaPaCa-2 cells [2]; RNA synthesis, 24 h vs control",−2.4 fold
same,Fold Change SLC37A4,"MiaPaCa-2 cells [2]; RNA synthesis, 24 h vs control",−2.3 fold
same,Fold Change SLFN5,"MiaPaCa-2 cells [2]; RNA synthesis, 24 h vs control",10.1 fold
same,Fold Change TERC,"MiaPaCa-2 cells [2]; RNA synthesis, 24 h vs control",−2.4 fold
same,Fold Change THAP11,"MiaPaCa-2 cells [2]; RNA synthesis, 24 h vs control",−2.5 fold
same,Fold Change TRIB3,"MiaPaCa-2 cells [2]; RNA synthesis, 24 h vs control",14.3 fold
same,Fold Change UPP1,"MiaPaCa-2 cells [2]; RNA synthesis, 24 h vs control",18.4 fold
same,Fold Change WIPI1,"MiaPaCa-2 cells [2]; RNA synthesis, 24 h vs control",15.3 fold
same,Fold Change ZDHHC12,"MiaPaCa-2 cells [2]; RNA synthesis, 24 h vs control",−2.4 fold
same,"genes up-regulated in unfolded protein response, ER stress pathway and circadian rhythm signaling",MiaPaCa-2 cells [3],about 25%
